# Assay results reported in US10323022B2, “Pyrrolidinyl urea, pyrrolidinyl thiourea and pyrrolidinyl guanidine compounds as TrkA kinase inhibitors” (Array BioPharma Inc., priority 2011, dated 2019).
# Where a name gives a salt, the structure may show the parent alone.
# Molecular target: TrkA (Homo sapiens (Human), UniProt P04629)
# Assay: TrkA Omnia Assay
# Format: biochemical
# Conditions: averaged IC50; 20 nM enzyme, 500 μM ATP, 10 μM peptide substrate
# Protocol: Trk enzymatic selectivity was assessed using Omnia™ Kinase Assay reagents from Invitrogen Corp. Enzyme (TrkA from Invitrogen Corp.) and test compound (various concentrations) were incubated for 10 minutes at ambient temperature in a 384-well white polypropylene plate (Nunc catalog#267462). Omnia Tyr Peptide #4, as well as ATP, were then added to the plate. Final concentrations were as follows: 20 nM enzyme, 500 μM of ATP, 10 μM peptide substrate. The assay buffer consisted of 25 mM MOPS pH 7.5, 0.005% (v/v) Triton X-100 and 5 mM MgCl2. The production of phosphorylated peptide was monitored continuously for 70 minutes using a Molecular Devices FlexStation II^384 microplate reader (excitation=360 nm; emission=485 nm). Initial rates were calculated from the progress curves. IC50 values were calculated from these rates using either a 4 or 5-parameter logistic curve fit.
# Chain of TrkA (P04629 33-796): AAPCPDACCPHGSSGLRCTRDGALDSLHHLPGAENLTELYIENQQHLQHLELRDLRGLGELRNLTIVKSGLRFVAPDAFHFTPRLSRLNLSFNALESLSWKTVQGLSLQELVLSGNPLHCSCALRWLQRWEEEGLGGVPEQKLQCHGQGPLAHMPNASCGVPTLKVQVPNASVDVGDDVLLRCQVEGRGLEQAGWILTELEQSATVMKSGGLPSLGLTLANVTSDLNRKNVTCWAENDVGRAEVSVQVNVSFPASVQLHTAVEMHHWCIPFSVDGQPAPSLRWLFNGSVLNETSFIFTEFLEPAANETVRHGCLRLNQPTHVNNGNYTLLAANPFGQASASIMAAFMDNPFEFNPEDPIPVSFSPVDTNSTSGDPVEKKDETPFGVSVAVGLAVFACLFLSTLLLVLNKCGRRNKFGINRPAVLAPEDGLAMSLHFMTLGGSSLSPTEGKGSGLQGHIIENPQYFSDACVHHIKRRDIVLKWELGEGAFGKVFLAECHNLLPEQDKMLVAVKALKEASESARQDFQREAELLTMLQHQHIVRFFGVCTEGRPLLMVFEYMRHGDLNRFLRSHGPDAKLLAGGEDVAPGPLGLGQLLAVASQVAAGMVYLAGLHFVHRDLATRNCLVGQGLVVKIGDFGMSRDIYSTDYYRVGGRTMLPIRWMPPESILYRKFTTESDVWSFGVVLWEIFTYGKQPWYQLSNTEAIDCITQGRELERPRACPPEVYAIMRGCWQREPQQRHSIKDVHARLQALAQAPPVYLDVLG
row,IC50 [nM],Compound
1,< 100,"1-((3S,4R)-4-(3,4- fluorophenyl)-1-(2- methoxyethyl)pyrrolidin-3-yl)- 3-(1-(3-chlorophenyl)-1′,4- dimethyl-1H,1′H-[3,4′- bipyrazol]-5-yl)urea [Example 321]"
2,1000 to 10000,"COCCN1C[C@@H](NC(=O)Nc2cc(C(C)(C)C)nn2-c2ccc(C)cc2)[C@H](c2ccccc2)C1 (relative stereo) [Example 2, 1-(3-tert-butyl-1-p-tolyl-1H-pyrazol-5-yl)-3-(trans-1-(2-methoxyethyl)-4-phenylpyrrolidin-3-yl) urea hydrochloride]"
3,< 100,"COCCN1C[C@@H](NC(=O)Nc2c3c(nn2-c2ccccc2)CCC3)[C@H](c2ccc(F)c(F)c2)C1 (relative stereo) [Example 3, trans-1-(4-(3,4-difluorophenyl)-1-(2-methoxyethyl)pyrrolidin-3-yl)-3-(2-phenyl-2,4,5,6-tetrahydrocyclopenta[c]pyrazol-3-yl)urea]"
4,< 100,"COCCN1C[C@@H](NC(=O)Nc2cc(C(C)C)nn2-c2ccccc2)[C@H](c2ccc(F)c(F)c2)C1 (relative stereo) [Example 4, trans-1-(4-(3,4-difluorophenyl)-1-(2-methoxyethyl)pyrrolidin-3-yl)-3-(3-isopropyl-1-phenyl-1H-pyrazol-5-yl) urea]"
5,1000 to 10000,"COCCN1C[C@@H](NC(=O)Nc2cc(C(C)(C)C)nn2C)[C@H](c2ccccc2)C1 (relative stereo) [Example 5, 1-(3-tert-butyl-1-methyl-1H-pyrazol-5-yl)-3-(trans-1-(2-methoxyethyl)-4-phenylpyrrolidin-3-yl) urea]"
6,1000 to 10000,"COCCN1C[C@@H](NC(=O)Nc2cc(C)nn2C)[C@H](c2ccccc2)C1 (relative stereo) [Example 6, 1-(1,3-dimethyl-1H-pyrazol-5-yl)-3-(trans-1-(2-methoxyethyl)-4-phenylpyrrolidin-3-yl) urea]"
7,1000 to 10000,"COCCN1C[C@@H](NC(=O)Nc2cc(C(C)(C)C)nn2-c2cccnc2)[C@H](c2ccccc2)C1 (relative stereo) [Example 7, 1-(3-tert-butyl-1-(pyridin-3-yl)-1H-pyrazol-5-yl)-3-(trans-1-(2-methoxyethyl)-4-phenylpyrrolidin-3-yl) urea]"
8,100 to 1000,"COCCN1C[C@@H](NC(=O)Nc2cc(C(C)(C)C)nn2-c2ccc(F)cc2)[C@H](c2ccccc2)C1 (relative stereo) [Example 8, 1-(3-tert-butyl-1-(4-fluorophenyl)-1H-pyrazol-5-yl)-3-(trans-1-(2-methoxyethyl)-4-phenyl-pyrrolidin-3-yl)urea]"
9,< 100,"COCCN1C[C@@H](NC(=O)Nc2cc(C3CC3)nn2-c2ccccc2)[C@H](c2ccccc2)C1 (relative stereo) [Example 9, 1-(3-cyclopropyl-1-phenyl-1H-pyrazol-5-yl)-3-(trans-1-(2-methoxyethyl)-4-phenylpyrrolidin-3-yl)urea]"
10,< 100,"COCCN1C[C@@H](NC(=O)Nc2cc(-c3ccccc3)nn2-c2ccccc2)[C@H](c2ccccc2)C1 (relative stereo) [Example 10, 1-(1,3-diphenyl-1H-pyrazol-5-yl)-3-(trans-1-(2-methoxyethyl)-4-phenylpyrrolidin-3-yl)urea]"
11,< 100,"COCCN1C[C@@H](NC(=O)Nc2cc(C)nn2-c2ccccc2)[C@H](c2ccccc2)C1 (relative stereo) [Example 11, 1-(trans-1-(2-methoxyethyl)-4-phenylpyrrolidin-3-yl)-3-(3-methyl-1-phenyl-1H-pyrazol-5-yl)urea]"
12,< 100,"COCCN1C[C@@H](NC(=O)Nc2cc(C(C)C)nn2-c2ccccc2)[C@H](c2ccccc2)C1 (relative stereo) [Example 12, 1-(3-isopropyl-1-phenyl-1H-pyrazol-5-yl)-3-(trans-1-(2-methoxyethyl)-4-phenylpyrrolidin-3-yl)urea]"
13,< 100,"COCCN1C[C@@H](NC(=O)Nc2cc(-c3ccccc3)nn2C)[C@H](c2ccccc2)C1 (relative stereo) [Example 13, 1-(trans-1-(2-methoxyethyl)-4-phenylpyrrolidin-3-yl)-3-(1-methyl-3-phenyl-1H-pyrazol-5-yl)urea]"
14,< 100,"COCCN1C[C@@H](NC(=O)Nc2c3c(nn2-c2ccccc2)CCC3)[C@H](c2ccccc2)C1 (relative stereo) [Example 14, 1-(trans-1-(2-methoxyethyl)-4-phenylpyrrolidin-3-yl)-3-(2-phenyl-2,4,5,6-tetrahydrocyclopenta[c]pyrazol-3-yl)urea]"
15,100 to 1000,"COCCN1C[C@@H](NC(=O)Nc2ccnn2-c2ccccc2)[C@H](c2ccccc2)C1 (relative stereo) [Example 15, 1-(trans-1-(2-methoxyethyl)-4-phenylpyrrolidin-3-yl)-3-(1-phenyl-1H-pyrazol-5-yl)urea]"
16,1000 to 10000,"COCCN1C[C@@H](NC(=O)Nc2cc(C(C)(C)C)nn2-c2ccccc2F)[C@H](c2ccccc2)C1 (relative stereo) [Example 16, 1-(3-tert-butyl-1-(2-fluorophenyl)-1H-pyrazol-5-yl)-3-(trans-1-(2-methoxyethyl)-4-phenylpyrrolidin-3-yl)urea]"
17,100 to 1000,"COCCN1C[C@@H](NC(=O)Nc2cc(C(C)(C)C)nn2-c2cccc(F)c2)[C@H](c2ccccc2)C1 (relative stereo) [Example 17, 1-(3-tert-butyl-1-(3-fluorophenyl)-1H-pyrazol-5-yl)-3-(trans-1-(2-methoxyethyl)-4-phenylpyrrolidin-3-yl)urea]"
18,< 100,"COCCN1C[C@@H](NC(=O)Nc2c(C)c(C)nn2-c2ccccc2)[C@H](c2ccccc2)C1 (relative stereo) [Example 18, 1-(3,4-dimethyl-1-phenyl-1H-pyrazol-5-yl)-3-(trans-1-(2-methoxyethyl)-4-phenylpyrrolidin-3-yl)urea]"
19,100 to 1000,"COCCN1C[C@@H](NC(=O)Nc2c3c(nn2-c2cccnc2)CCC3)[C@H](c2ccccc2)C1 (relative stereo) [Example 19, 1-(trans-1-(2-methoxyethyl)-4-phenylpyrrolidin-3-yl)-3-(2-(pyridin-3-yl)-2,4,5,6-tetrahydrocyclopenta[c]pyrazol-3-yl)urea]"
20,1000 to 10000,"COCCN1C[C@@H](NC(=O)Nc2ccnn2C)[C@H](c2ccccc2)C1 (relative stereo) [Example 20, 1-(trans-1-(2-methoxyethyl)-4-phenylpyrrolidin-3-yl)-3-(1-methyl-1H-pyrazol-5-yl)urea]"
21,< 100,"COCCN1C[C@@H](NC(=S)Nc2c3c(nn2-c2ccccc2)CCC3)[C@H](c2ccccc2)C1 (relative stereo) [Example 21, 1-(trans-1-(2-methoxyethyl)-4-phenylpyrrolidin-3-yl)-3-(2-phenyl-2,4,5,6-tetrahydrocyclopenta[c]pyrazol-3-yl)thiourea]"
22,< 100,"COCCN1C[C@@H](NC(=O)Nc2c3c(nn2-c2cccc(F)c2)CCC3)[C@H](c2ccccc2)C1 (relative stereo) [Example 22, 1-(2-(3-fluorophenyl)-2,4,5,6-tetrahydrocyclopenta[c]pyrazol-3-yl)-3-(trans-1-(2-methoxyethyl)-4-phenylpyrrolidin-3-yl)urea]"
23,< 100,"COCCN1C[C@@H](NC(=O)Nc2c3c(nn2-c2ccc(F)cc2)CCC3)[C@H](c2ccccc2)C1 (relative stereo) [Example 23, 1-(2-(4-fluorophenyl)-2,4,5,6-tetrahydrocyclopenta[c]pyrazol-3-yl)-3-(trans-1-(2-methoxyethyl)-4-phenylpyrrolidin-3-yl)urea]"
24,< 100,"COCCN1C[C@@H](NC(=O)Nc2cc(C3CCCC3)nn2-c2ccccc2)[C@H](c2ccccc2)C1 (relative stereo) [Example 24, 1-(3-cyclopentyl-1-phenyl-1H-pyrazol-5-yl)-3-(trans-1-(2-methoxyethyl)-4-phenylpyrrolidin-3-yl)urea]"
25,100 to 1000,"CCn1nc(-c2ccccc2)cc1NC(=O)N[C@@H]1CN(CCOC)C[C@H]1c1ccccc1 (relative stereo) [Example 25, 1-(1-ethyl-3-phenyl-1H-pyrazol-5-yl)-3-(trans-1-(2-methoxyethyl)-4-phenylpyrrolidin-3-yl)urea]"
26,< 100,"COCCN1C[C@@H](NC(=O)Nc2c3c(nn2-c2ccccc2)CCCC3)[C@H](c2ccccc2)C1 (relative stereo) [Example 26, 1-(trans-1-(2-methoxyethyl)-4-phenylpyrrolidin-3-yl)-3-(2-phenyl-4,5,6,7-tetrahydro-2H-indazol-3-yl)urea]"
27,1000 to 10000,"COCCN1C[C@@H](NC(=O)Nc2c3c(nn2C)CCC3)[C@H](c2ccccc2)C1 (relative stereo) [Example 27, 1-(trans-1-(2-methoxyethyl)-4-phenylpyrrolidin-3-yl)-3-(2-methyl-2,4,5,6-tetrahydrocyclopenta[c]pyrazol-3-yl)urea]"
28,100 to 1000,"COCCN1C[C@@H](NC(=O)Nc2c(-c3ccccc3)c(C)nn2C)[C@H](c2ccccc2)C1 (relative stereo) [Example 28, 1-(1,3-dimethyl-4-phenyl-1H-pyrazol-5-yl)-3-(trans-1-(2-methoxyethyl)-4-phenylpyrrolidin-3-yl)urea]"
29,1000 to 10000,"COCCN1C[C@@H](NC(=O)Nc2cc(C(C)(C)C)nn2-c2ccccc2C)[C@H](c2ccccc2)C1 (relative stereo) [Example 29, 1-(3-tert-butyl-1-o-tolyl-1H-pyrazol-5-yl)-3-(trans-1-(2-methoxyethyl)-4-phenylpyrrolidin-3-yl)urea]"
30,< 100,"COCCN1C[C@@H](NC(=O)Nc2cc(C(C)(C)C)nn2-c2cccc(C)c2)[C@H](c2ccccc2)C1 (relative stereo) [Example 30, 1-(3-tert-butyl-1-m-tolyl-1H-pyrazol-5-yl)-3-(trans-1-(2-methoxyethyl)-4-phenylpyrrolidin-3-yl)urea]"
